Test results from US9187524B2, “Broad spectrum antibiotic arylomycin analogs” (The Scripps Research Institute, priority 2010, dated 2015).

Assays:
[1] = tested on: S. epidermidis PAS9002 (SPase S31P); experiment: microbe, parasite or virus in culture; format: cell-based
[2] = tested on: S. epidermidis; experiment: Selection of arylomycin resistant S. epidermidis; format: cell-based; conditions: growth in the presence of 2 μg/ml (8×MIC)

CCCCCCCCCCCCCCCC(=O)N(C)[C@H](CO)C(=O)N[C@H](C)C(=O)NCC(=O)N(C)[C@@H]1C(=O)N[C@@H](C)C(=O)N[C@H](C(=O)O)Cc2ccc(O)c(c2)-c2cc1ccc2O [Arylomycin C16]
MIC ([1]; Staphylococcus epidermidis, read-out: MIC, S. epidermidis PAS9002): > 128 µg/mL | fold elevated MIC compared to the wild type strain, Ser to Pro at position 31 ([1]; remainder of selected S. epidermidis mutants): greater than 256 fold | frequency of resistant mutants [2]: 4 per 109 viable cells
